# Test results as given in ChEMBL document CHEMBL1148207, “Dictyosphaeric acids A and B: new decalactones from an undescribed Penicillium sp. obtained from the alga Dictyosphaeria versluyii” (2004).
# Calls of active or inactive are those of the source. No cut-off for these calls is given here.
# Tests used:
# [1] = system: Staphylococcus aureus; assay: Antibacterial activity against methicillin-resistant Staphylococcus aureus at 50 ug/well; type: functional
# [2] = system: Staphylococcus aureus; assay: Antibacterial activity against methicillin-sensitive Staphylococcus aureus at 50 ug/well; type: functional
# [3] = system: Candida albicans; assay: Antimicrobial activity against Candida albicans at 50 ug/well; type: functional
# [4] = system: Enterococcus faecium; assay: Antibacterial activity against vancomycin-resistant Enterococcus faecium at 50 ug/well; type: functional
# [5] = system: Enterococcus faecium; assay: Antibacterial activity against vancomycin-resistant Enterococcus faecium at 200 ug/well; type: functional, organism-based
# [6] = system: Staphylococcus aureus; assay: Antibacterial activity against methicillin-resistant Staphylococcus aureus at 200 ug/well; type: functional, organism-based
# [7] = system: Staphylococcus aureus; assay: Antibacterial activity against methicillin-sensitive Staphylococcus aureus at 200 ug/well; type: functional, organism-based
# [8] = system: Candida albicans; assay: Antimicrobial activity against Candida albicans at 200 ug/well; type: functional, organism-based
SMILES,zone of inhibition at 50 µg/disc ([1]; read-out: IZ) [mm],zone of inhibition at 50 µg/disc ([2]; read-out: IZ) [mm],zone of inhibition at 50 µg/disc ([3]; read-out: IZ) [mm],zone of inhibition at 50 µg/disc ([4]; read-out: IZ) [mm],Activity [1],Activity [5],Activity [6],Activity [2],Activity [7],Activity [3],Activity [8],Activity [4]
C[C@H]1CCC[C@@H](O)[C@]2(O)C(=O)C=C[C@@H]3OC(/C=C/C=C/C=C/C(=O)O)=C(C(=O)O1)[C@@H]32 [DICTYOSPHAERIC ACID A],12,11,7,7,,,,,,,,
COc1cc(CO)cc2c1C(=O)c1c(O)cc(O)cc1C2=O,,,,,inactive,inactive,inactive,inactive,inactive,inactive,inactive,inactive
C[C@H]1CCC[C@@H](O)[C@]2(O)C(=O)C[C@H](O)[C@@H]3OC(/C=C/C=C/C=C/C(=O)O)=C(C(=O)O1)[C@@H]32,,,,,inactive,,,inactive,,inactive,,inactive
